In patent US12590106B2, “Spiromacrocyclic orexin 2 receptor agonists” (H. Lundbeck A/S, priority 2023, dated 2026):

Columns and labels:
human Ox2R = molecular target: T1, human Ox2R (Homo sapiens, UniProt O43614); assay: Measurement of OX2R agonist activity (cell-based calcium release assay); settings: hOx2R-CHO Flp-In cells, n≥2 tests; for EC50: intracellular calcium, read-out: EC50; for Emax: normalized to assay buffer (0%) and 10 μM Danavorexton (100%), read-out: Emax (%)
T1 construct: The gene encoding hOx2R was subcloned into the expression plasmid pcDNA5/FRT/TO; expressed in transfected cells; host or cells: CHO Flp-In cells (pcDNA5/FRT/TO with pOG44 Flp recombinase vector, hygromycin B selection)
T1 sequence (O43614 1-444): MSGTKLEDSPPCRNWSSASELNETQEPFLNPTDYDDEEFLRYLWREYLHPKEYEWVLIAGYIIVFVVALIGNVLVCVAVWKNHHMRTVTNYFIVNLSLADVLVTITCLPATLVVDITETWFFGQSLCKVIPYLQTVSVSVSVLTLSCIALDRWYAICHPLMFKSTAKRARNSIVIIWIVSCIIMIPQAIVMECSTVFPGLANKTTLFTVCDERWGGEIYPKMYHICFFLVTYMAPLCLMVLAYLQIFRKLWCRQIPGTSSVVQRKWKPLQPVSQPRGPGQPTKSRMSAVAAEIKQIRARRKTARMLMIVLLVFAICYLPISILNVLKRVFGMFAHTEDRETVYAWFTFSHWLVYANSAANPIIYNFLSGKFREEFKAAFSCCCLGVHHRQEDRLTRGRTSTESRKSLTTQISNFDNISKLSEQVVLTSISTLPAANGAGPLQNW
Summary of the method: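 CHO Flp-In cells stably expressing human Ox2R, dye-loaded 1 h at 37 °C in HBSS/20 mM HEPES pH 7.4 with 2.5 mM probenecid and 10 mM CaCl2, then stimulated with compound.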

P-gp (MDR1) = molecular target: T2, P-gp (MDR1) (Homo sapiens, UniProt P08183); assay: MDR1-MDCKII assay (bidirectional transport); assay type: in vitro ADME; settings: MDCK-MDR1, pH 7.4, test compound 0.5 μM, MDR1-MDCKII monolayer; for efflux ratio at 0.5 μM: read-out: ER (efflux ratio); for Papp A→B at 0.5 μM: apical to basolateral
T2 construct: host or cells: MDCKII (canine kidney) cells transfected with human MDR1
Method: Bidirectional transport in MDCKII cells transfected with human MDR1 were assessed according to previously published methodology (Langthaler, K. et al. (2024). Fluids Barriers CNS, 21 (11): 1-15). In brief, cells obtained from the Netherlands Cancer Institute were maintained at 37° C. in α-MEM containing 10% FBS, 100 μg/mL penicillin-G, 100 μg/mL streptomycin, 1% non-essential amino acid under culture conditions of 5% CO2 and 95% relative humidity. Transport of test compound (0.5 μM, 0.4% DMSO final concentrations) across the cell monolayer was determined in triplicate on a single test occasion along with controls for low and high permeability (fenoterol and metoprolol, 2 μM) and P-gp efflux (digoxin, 10 μM). Each compound was loaded onto either the apical side (75 μL) or basolateral side (275 μL) with transport buffer (1% BSA in HBSS with 10 mM HEPES (pH 7.4)) on the opposing side of the cells (e.g. 50 μL or 250 μL on the apical or basolateral side). A sample (25 μL) from the donor compartment was taken 30 s after test compound is loaded onto the plate, resulting in a final incubation volume of 50 μL and 250 μL on apical and basolateral sides respectively. At the end of the incubation period, samples (75 μL) were taken from both sides. The donor samples (25 μL) were firstly diluted with transport buffer (50 μL) and then all samples were quenched in acetonitrile (125 μL) containing internal analytical standards. After centrifugation (20 min, 3220 g, 4° C.) the supernatants were analysed by LC-MS/MS. The apparent permeability coefficient (Papp) and efflux ratio (ER) were calculated using the equations below; where dCr/dt is the compound concentration in the receiver chamber as a function of time (μM/s); Vr is the solution volume in the receiver chamber; A is the surface area of the cell monolayer; C0 is the initial concentration in the donor compartment; and Papp A-B and Papp B-A refer to the apparent permeabilities in the respective directions. Compound permeability is classified as low, moderate, or high according to Papp value binning classifications: <1, 1 to 6 or >6×10^−6 cm/s, respectively. The ER is employed to classify compounds as unlikely, possible, or likely P-gp substrates when ER was: <1.5, 1.5 to <2 or >2, respectively.

T2 sequence (P08183 whole entry): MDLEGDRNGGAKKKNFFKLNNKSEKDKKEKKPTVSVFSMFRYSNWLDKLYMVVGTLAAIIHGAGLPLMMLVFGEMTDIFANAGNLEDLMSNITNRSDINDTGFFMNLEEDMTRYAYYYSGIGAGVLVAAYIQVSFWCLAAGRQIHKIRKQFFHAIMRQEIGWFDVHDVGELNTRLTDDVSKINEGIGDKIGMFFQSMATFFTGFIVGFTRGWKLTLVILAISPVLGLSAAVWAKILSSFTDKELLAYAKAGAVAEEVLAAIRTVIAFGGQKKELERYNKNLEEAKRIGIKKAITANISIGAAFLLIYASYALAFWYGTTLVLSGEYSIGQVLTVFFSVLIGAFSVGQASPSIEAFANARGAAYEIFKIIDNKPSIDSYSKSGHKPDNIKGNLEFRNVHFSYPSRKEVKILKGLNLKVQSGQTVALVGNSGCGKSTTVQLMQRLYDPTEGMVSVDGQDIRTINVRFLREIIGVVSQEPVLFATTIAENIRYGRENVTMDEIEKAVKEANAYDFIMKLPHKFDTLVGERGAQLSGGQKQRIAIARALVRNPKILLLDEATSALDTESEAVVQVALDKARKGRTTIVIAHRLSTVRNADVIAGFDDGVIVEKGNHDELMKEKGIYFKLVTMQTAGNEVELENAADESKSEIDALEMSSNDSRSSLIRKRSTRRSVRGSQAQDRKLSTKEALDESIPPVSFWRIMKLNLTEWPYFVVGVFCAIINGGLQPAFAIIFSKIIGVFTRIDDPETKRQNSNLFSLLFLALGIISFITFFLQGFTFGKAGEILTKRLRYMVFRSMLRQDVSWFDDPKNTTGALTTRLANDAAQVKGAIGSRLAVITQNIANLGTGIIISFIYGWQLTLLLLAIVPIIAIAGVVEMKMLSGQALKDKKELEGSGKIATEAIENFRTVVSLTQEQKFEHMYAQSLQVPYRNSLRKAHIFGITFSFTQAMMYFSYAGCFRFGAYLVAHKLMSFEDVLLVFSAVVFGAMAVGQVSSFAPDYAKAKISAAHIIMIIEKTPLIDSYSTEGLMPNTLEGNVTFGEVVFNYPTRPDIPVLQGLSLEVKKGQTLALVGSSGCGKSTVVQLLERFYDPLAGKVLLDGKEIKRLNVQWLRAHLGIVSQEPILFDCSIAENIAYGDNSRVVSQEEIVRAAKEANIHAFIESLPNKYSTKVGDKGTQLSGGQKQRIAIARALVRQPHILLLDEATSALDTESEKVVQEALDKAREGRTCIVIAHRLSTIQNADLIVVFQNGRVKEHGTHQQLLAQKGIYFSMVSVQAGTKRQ

Compound | EC50 (human Ox2R) [nM] | Emax (human Ox2R) [%] | efflux ratio at 0.5 μM (P-gp (MDR1)) | Papp A→B at 0.5 μM (P-gp (MDR1)) [×10⁻⁶ cm/s]
CS(=O)(=O)N[C@H]1CC[C@@]2(Cc3ccc(F)c(c3)-c3cccc(F)c3OCc3coc2n3)C1 [Example 8, N-[(1′S,14R)-6,19-difluorospiro[8,12-dioxa-21-azatetracyclo[14.3.1.110,13.02,7]henicosa-1(19),2,4,6,10,13(21),16(20),17-octaene-14,3′-cyclopentane]-1′-yl]methanesulfonamide] | 0.064 | 99 | 1.3 | 11.5
CS(=O)(=O)N[C@H]1CC[C@@]2(Cc3ccc(Cl)c(c3)-c3cccc(F)c3OCc3coc2n3)C1 [Example 16, N-[(1′S,14R)-19-chloro-6-fluoro-spiro[8,12-dioxa-21-azatetracyclo[14.3.1.110,13.02,7]henicosa-1(19),2,4,6,10,13(21),16(20),17-octaene-14,3′-cyclopentane]-1′-yl]methanesulfonamide] | 0.051 | 99 | 1 | 9.31
CCS(=O)(=O)N[C@H]1CC[C@@]2(Cc3ccc(F)c(c3)-c3cccc(F)c3OCc3coc2n3)C1 [Example 21, N-[(1′S,14R)-6,19-difluorospiro[8,12-dioxa-21-azatetracyclo[14.3.1.110,13.02,7]henicosa-1(19),2,4,6,10,13(21),16(20),17-octaene-14,3′-cyclopentane]-1′-yl]ethanesulfonamide] | 0.083 | 100 | 1.4 | 9.89
Cc1oc2nc1COc1c(F)cccc1-c1cc(ccc1F)C[C@@]21CC[C@H](NS(C)(=O)=O)C1 [Example 25, N-[(1′S,14R)-6,19-difluoro-11-methyl-spiro[8,12-dioxa-21-azatetracyclo[14.3.1.110,13.02,7]henicosa-1(19),2,4,6,10,13(21),16(20),17-octaene-14,3′-cyclopentane]-1′-yl]methanesulfonamide] | 0.066 | 97 | 2 | 8.2
CS(=O)(=O)N[C@H]1CC[C@@]2(Cc3cc(c(F)cc3F)-c3cc(F)cc(F)c3OCc3coc2n3)C1 [Example 30, N-[(1′S,14R)-4,6,17,19-tetrafluorospiro[8,12-dioxa-21-azatetracyclo[14.3.1.110,13.02,7]henicosa-1(19),2,4,6,10,13(21),16(20),17-octaene-14,3′-cyclopentane]-1′-yl]methanesulfonamide] | 0.077 | 97 | 1.8 | 9.04
CS(=O)(=O)N[C@H]1CC[C@@]2(Cc3cc(c(F)cc3F)-c3cccc(F)c3OCc3csc2n3)C1 [Example 36, N-[(1′S,14R)-6,17,19-trifluorospiro[8-oxa-12-thia-21-azatetracyclo[14.3.1.110,13.02,7]henicosa-1(19),2,4,6,10,13(21),16(20),17-octaene-14,3′-cyclopentane]-1′-yl]methanesulfonamide] | 0.058 | 100 | 1.1 | 8.23
CS(=O)(=O)N[C@H]1CC[C@@]2(Cc3cc(c(F)cc3F)-c3cccc(F)c3OCc3coc2n3)C1 [Example 39, N-[(1′S,14R)-6,17,19-trifluorospiro[8,12-dioxa-21-azatetracyclo[14.3.1.110,13.02,7]henicosa-1(19),2,4,6,10,13(21),16(20),17-octaene-14,3′-cyclopentane]-1′-yl]methanesulfonamide] | 0.035 | 97 | 1.1 | 10.2
CS(=O)(=O)N[C@H]1CC[C@@]2(CO[C@H]3CC[C@H](CC3)c3cccc(n3)OCc3coc2n3)C1 [Example 42, N-[(1s,1′S,13S,16s)-spiro[7,11,15-trioxa-21,22-diazatetracyclo[14.2.2.12,6.19,12]docosa-2,4,6(22),9,12(21)-pentaene-13,3′-cyclopentane]-1′-yl]methanesulfonamide] | 0.062 | 98 | 1 | 13
CS(=O)(=O)NC1CC[C@@]2(CO[C@H]3CC[C@H](CC3)c3cccc(F)c3OCc3coc2n3)C1 (stereo partly drawn) [Example 100, N-[(1R,1′S,14S,17R)-6-fluorospiro[8,12,16-trioxa-22-azatetracyclo[15.2.2.110,13.02,7]docosa-2,4,6,10,13(22)-pentaene-14,3′-cyclopentane]-1′-yl]methanesulfonamide] | 0.037 | 100 | 1.8 | 10.2
O=S(=O)(N[C@H]1CC[C@@]2(Cc3cc(c(F)cc3F)-c3cccc(F)c3OCc3coc2n3)C1)C1CC1 [Example 104, N-[(1′S,14R)-6,17,19-trifluorospiro[8,12-dioxa-21-azatetracyclo[14.3.1.110,13.02,7]henicosa-1(19),2,4,6,10,13(21),16(20),17-octaene-14,3′-cyclopentane]-1′-yl]cyclopropanesulfonamide] | 0.08 | 100 | 1.6 | 9.52
O=S(=O)(CF)N[C@H]1CC[C@@]2(Cc3ccc(F)c(c3)-c3cccc(F)c3OCc3coc2n3)C1 [Example 113, N-[(1′S,14R)-6,19-difluorospiro[8,12-dioxa-21-azatetracyclo[14.3.1.110,13.02,7]henicosa-1(20),2,4,6,10,13(21),16,18-octaene-14,3′-cyclopentane]-1′-yl]-1-fluoro-methanesulfonamide] | 0.054 | 95 | 1.3 | 6.47
O=S(=O)(N[C@H]1CC[C@@]2(Cc3ccc(F)c(c3)-c3cccc(F)c3OCc3coc2n3)C1)C1(F)CC1 [Example 116, N-[(1′S,14R)-6,19-difluorospiro[8,12-dioxa-21-azatetracyclo[14.3.1.110,13.02,7]henicosa-1(20),2,4,6,10,13(21),16,18-octaene-14,3′-cyclopentane]-1′-yl]-1-fluoro-cyclopropanesulfonamide] | 0.068 | 98 | 1.5 | 3.87
CS(=O)(=O)N[C@@H]1C[C@]2(Cc3ccc(F)c(c3)-c3cccc(F)c3OCc3coc2n3)[C@H]2C[C@@H]12 [Example 117, N-[(1′R,2′R,5′S,14R)-6,19-difluorospiro[8,12-dioxa-21-azatetracyclo[14.3.1.110,13.02,7]henicosa-1(20),2,4,6,10,13(21),16,18-octaene-14,4′-bicyclo[3.1.0]hexane]-2′-yl]methanesulfonamide] | 0.048 | 100 | 1.9 | 9.31
